Measurements as given in PMC7046553, “Backbone Cyclization and Dimerization of LL-37-Derived Peptides Enhance Antimicrobial Activity and Proteolytic Stability” (Frontiers in Microbiology, 2020).
Values after ≈ are worked out from the molar mass of the structure shown. Like-named read-outs stand apart in the source and are kept apart here. Where a SMILES comes first, the peptide text is derived from it. Where no end group is shown, it is not given here.

Tests used:
[1] = system: Pseudomonas aeruginosa ATCC 27853
Experimental: (§1) The three bacterial strains: Escherichia coli ATCC 25922, Pseudomonas aeruginosa ATCC 27853 Staphylococcus aureus ATCC 29213 as well as the fungal strain Candida albicans ATCC 90028 derived from clinical wound infections were obtained from the Department of Clinical Bacteriology at Lund University Hospital.
(§2) Antimicrobial activities of the peptides were evaluated using the two-step microdilution assay ([Strömstedt et al., 2017]), which is designed for testing AMPs without activity-inhibiting components. Briefly, the microbial suspension was washed twice with 10 mM Tris buffer (set to pH 7.4 at 37°C). 96-well plates (U-shaped, untreated polystyrene) were prepared with peptide 2-fold serial dilutions in Tris buffer. The culture density was quantified by OD600, diluted in Tris buffer and 50,000 cells aliquoted to each well in the 96-well plate to a final 100 μl volume. After 5 h of aerobic incubation at 37°C, 5 μl of 20% TSB medium was added to each well (resulting in 1% TSB) and the plates were re-incubated. Growth-inhibition was monitored when controls produced pellet sizes of 2 mm in diameter (close to growth saturation), which equates to 5, 8, 10, and 12 h for E. coli, S. aureus, P. aeruginosa, and C. albicans, respectively. […] The MIC-values in Table 1, are medians from triplicate experiments, while the data presented in the Figure 2 are the same values relative to that of KR-12.

[2] = system: Escherichia coli ATCC 25922; settings: ATCC 25922, 5 h
Experimental: as §1, §2

[3] = system: Staphylococcus aureus ATCC 29213; settings: ATCC 29213, 5 h
Experimental: as §1, §2

[4] = system: Candida albicans ATCC 90028
Experimental: as §1, §2

in vitro = settings: 25% human serum
Experimental: Proteolytic stability of the peptides were determined in diluted human serum (1:4 v/v, serum:PBS) at 37°C followed by LC-MS analysis. To examine the intact peptide after serum incubation, aliquots of each incubation mixture were taken at each time point for LC-MS analysis (Figure 5).
Peptide stability was assayed in diluted human serum. 25% human serum was centrifuged at 13,000 rpm for 10 min to remove lipids and the supernatant was collected and incubated at 37°C for 15 min. […] Eighty μl of 6 M urea was added and incubated at 4°C for a further 10 min. 80 μl of 20% TCA was added and incubated at 4°C for a further 10 min. The samples were centrifuged at 13000 g for 10 min and the supernatant was analyzed by LC-MS.

[5] = median of triplicate experiments

| Compound | MIC P. aeruginosa ([1]; ATCC 27853, 5 h) | MIC E. coli [2] | MIC S. aureus [3] | MIC C. albicans ([4]; ATCC 90028, 5 h) | other results |
| --- | --- | --- | --- | --- | --- |
| CC[C@H](C)[C@@H]1NC(=O)[C@H](CCCCN)NC(=O)[C@H](CC(=O)O)NC(=O)[C@H](Cc2ccccc2)NC(=O)[C@H](CC(C)C)NC(=O)[C@H](CCCNC(=N)N)NC(=O)CNC(=O)CNC(=O)[C@H](CS)NC(=O)CNC(=O)[C@H](CCCCN)NC(=O)[C@H](CCCNC(=N)N)NC(=O)[C@H]([C@@H](C)CC)NC(=O)[C@H](C(C)C)NC(=O)[C@H](CCC(N)=O)NC(=O)[C@H](CCCNC(=N)N)NC(=O)[C@H]([C@@H](C)CC)NC(=O)[C@H](CCCCN)NC(=O)[C@H](CC(=O)O)NC(=O)[C@H](Cc2ccccc2)NC(=O)[C@H](CC(C)C)NC(=O)[C@H](CCCNC(=N)N)NC(=O)CNC(=O)CNC(=O)[C@H](C)NC(=O)CNC(=O)[C@H](CCCCN)NC(=O)[C@H](CCCNC(=N)N)NC(=O)[C@H]([C@@H](C)CC)NC(=O)[C@H](C(C)C)NC(=O)[C@H](CCC(N)=O)NC(=O)[C@H](CCCNC(=N)N)NC1=O [Peptide 2retro-cd4] (cyclo(CGGRLFDKIRQVIRKGAGGRLFDKIRQVIRKG)) | 1.25 µM (≈ 4.53 µg/mL) | 0.625 µM (≈ 2.27 µg/mL) | 1.25 µM (≈ 4.53 µg/mL) | 2.5 µM (≈ 9.06 µg/mL) | – |
| CC[C@H](C)[C@@H]1NC(=O)[C@H](CCCNC(=N)N)NC(=O)[C@H](CCC(N)=O)NC(=O)[C@H](C(C)C)NC(=O)[C@H]([C@@H](C)CC)NC(=O)[C@H](CCCNC(=N)N)NC(=O)[C@H](CCCCN)NC(=O)[C@H](C)NC(=O)CNC(=O)[C@H](CCCNC(=N)N)NC(=O)[C@H](CC(C)C)NC(=O)[C@H](Cc2ccccc2)NC(=O)[C@H](CC(=O)O)NC(=O)[C@H](CCCCN)NC(=O)[C@H]([C@@H](C)CC)NC(=O)[C@H](CCCNC(=N)N)NC(=O)[C@H](CCC(N)=O)NC(=O)[C@H](C(C)C)NC(=O)[C@H]([C@@H](C)CC)NC(=O)[C@H](CCCNC(=N)N)NC(=O)[C@H](CCCCN)NC(=O)[C@H](C)NC(=O)CNC(=O)[C@H](CCCNC(=N)N)NC(=O)[C@H](CC(C)C)NC(=O)[C@H](Cc2ccccc2)NC(=O)[C@H](CC(=O)O)NC(=O)[C@H](CCCCN)NC1=O [cd2] (cyclo(AKRIVQRIKDFLRGAKRIVQRIKDFLRG)) | 0.625 µM (≈ 2.1 µg/mL) | 0.625 µM (≈ 2.1 µg/mL) | 1.25 µM (≈ 4.21 µg/mL) | – | remaining at 6 h (in vitro; human): ~30% |
| CC[C@H](C)[C@@H]1NC(=O)[C@H](CCCNC(=N)N)NC(=O)[C@H](CCC(N)=O)NC(=O)[C@H](C(C)C)NC(=O)[C@H]([C@@H](C)CC)NC(=O)[C@H](CCCNC(=N)N)NC(=O)[C@H](CCCCN)NC(=O)CNC(=O)[C@H](C)NC(=O)CNC(=O)[C@H](CCCNC(=N)N)NC(=O)[C@H](CC(C)C)NC(=O)[C@H](Cc2ccccc2)NC(=O)[C@H](CC(=O)O)NC(=O)[C@H](CCCCN)NC(=O)[C@H]([C@@H](C)CC)NC(=O)[C@H](CCCNC(=N)N)NC(=O)[C@H](CCC(N)=O)NC(=O)[C@H](C(C)C)NC(=O)[C@H]([C@@H](C)CC)NC(=O)[C@H](CCCNC(=N)N)NC(=O)[C@H](CCCCN)NC(=O)CNC(=O)[C@H](C)NC(=O)CNC(=O)[C@H](CCCNC(=N)N)NC(=O)[C@H](CC(C)C)NC(=O)[C@H](Cc2ccccc2)NC(=O)[C@H](CC(=O)O)NC(=O)[C@H](CCCCN)NC1=O [cd3] (cyclo(AGKRIVQRIKDFLRGAGKRIVQRIKDFLRG)) | 0.625 µM (≈ 2.17 µg/mL) | 0.625 µM (≈ 2.17 µg/mL) | 1.25 µM (≈ 4.35 µg/mL) | 1.25 µM (≈ 4.35 µg/mL) | – |
| CC(C)C[C@@H]1NC(=O)CNC(=O)[C@H](CC(N)=O)NC(=O)[C@H](CCCNC(=N)N)NC(=O)[C@H]([C@@H](C)O)NC(=O)[C@@H]2CSSC[C@@H]3NC(=O)[C@H]([C@@H](C)O)NC(=O)CNC(=O)CNC(=O)[C@H](C(C)C)NC(=O)[C@@H]4CSSC[C@H](NC(=O)[C@H]([C@@H](C)O)NC(=O)[C@H](CSSC[C@H](NC(=O)[C@H](C(C)C)NC(=O)[C@@H]5CCCN5C1=O)C(=O)NCC(=O)N[C@@H](CCC(=O)O)C(=O)N[C@@H]([C@@H](C)O)C(=O)N4)NC(=O)CNC(=O)[C@@H]1CCCN1C(=O)[C@H]([C@@H](C)O)NC(=O)[C@H](CC(N)=O)NC3=O)C(=O)N[C@@H](CO)C(=O)N[C@@H](Cc1c[nH]c3ccccc13)C(=O)N1CCC[C@H]1C(=O)N[C@@H](C(C)C)C(=O)N2 [kalata B1, reference compound] | – | – | – | – | remaining at 24 h (in vitro; human): 80% |
| CC[C@H](C)[C@@H]1NC(=O)[C@H](CCCCN)NC(=O)[C@H](CC(=O)O)NC(=O)[C@H](Cc2ccccc2)NC(=O)[C@H](CC(C)C)NC(=O)[C@H](CCCNC(=N)N)NC(=O)[C@H](C)NC(=O)CNC(=O)[C@H](CCCNC(=N)N)NC(=O)[C@H](CC(C)C)NC(=O)[C@H](Cc2ccccc2)NC(=O)[C@H](CC(=O)O)NC(=O)[C@H](CCCCN)NC(=O)[C@H]([C@@H](C)CC)NC(=O)[C@H](CCCNC(=N)N)NC(=O)[C@H](CCC(N)=O)NC(=O)[C@H](C(C)C)NC(=O)[C@H]([C@@H](C)CC)NC(=O)[C@H](CCCNC(=N)N)NC(=O)[C@H](CCCCN)NC(=O)[C@H](C)NC(=O)CNC(=O)[C@H](CCCCN)NC(=O)[C@H](CCCNC(=N)N)NC(=O)[C@H]([C@@H](C)CC)NC(=O)[C@H](C(C)C)NC(=O)[C@H](CCC(N)=O)NC(=O)[C@H](CCCNC(=N)N)NC1=O [retro-cd2] (cyclo(AKRIVQRIKDFLRGARLFDKIRQVIRKG)) | 1.25 µM (≈ 4.21 µg/mL) | 0.625 µM (≈ 2.1 µg/mL) | 1.25 µM (≈ 4.21 µg/mL) | 2.5 µM (≈ 8.41 µg/mL) | – |
| CC[C@H](C)[C@@H]1NC(=O)[C@H](CCCCN)NC(=O)[C@H](CC(=O)O)NC(=O)[C@H](Cc2ccccc2)NC(=O)[C@H](CC(C)C)NC(=O)[C@H](CCCNC(=N)N)NC(=O)CNC(=O)[C@H](C)NC(=O)CNC(=O)[C@H](CCCNC(=N)N)NC(=O)[C@H](CC(C)C)NC(=O)[C@H](Cc2ccccc2)NC(=O)[C@H](CC(=O)O)NC(=O)[C@H](CCCCN)NC(=O)[C@H]([C@@H](C)CC)NC(=O)[C@H](CCCNC(=N)N)NC(=O)[C@H](CCC(N)=O)NC(=O)[C@H](C(C)C)NC(=O)[C@H]([C@@H](C)CC)NC(=O)[C@H](CCCNC(=N)N)NC(=O)[C@H](CCCCN)NC(=O)CNC(=O)[C@H](C)NC(=O)CNC(=O)[C@H](CCCCN)NC(=O)[C@H](CCCNC(=N)N)NC(=O)[C@H]([C@@H](C)CC)NC(=O)[C@H](C(C)C)NC(=O)[C@H](CCC(N)=O)NC(=O)[C@H](CCCNC(=N)N)NC1=O [retro-cd3] (cyclo(AGKRIVQRIKDFLRGAGRLFDKIRQVIRKG)) | 1.25 µM (≈ 4.35 µg/mL) | 1.25 µM (≈ 4.35 µg/mL) | 1.25 µM (≈ 4.35 µg/mL) | 2.5 µM (≈ 8.7 µg/mL) | – |
| CC[C@H](C)[C@@H]1NC(=O)[C@H](CCCCN)NC(=O)[C@H](CC(=O)O)NC(=O)[C@H](Cc2ccccc2)NC(=O)[C@H](CC(C)C)NC(=O)[C@H](CCCNC(=N)N)NC(=O)CNC(=O)CNC(=O)[C@H](C)NC(=O)CNC(=O)[C@H](CCCNC(=N)N)NC(=O)[C@H](CC(C)C)NC(=O)[C@H](Cc2ccccc2)NC(=O)[C@H](CC(=O)O)NC(=O)[C@H](CCCCN)NC(=O)[C@H]([C@@H](C)CC)NC(=O)[C@H](CCCNC(=N)N)NC(=O)[C@H](CCC(N)=O)NC(=O)[C@H](C(C)C)NC(=O)[C@H]([C@@H](C)CC)NC(=O)[C@H](CCCNC(=N)N)NC(=O)[C@H](CCCCN)NC(=O)CNC(=O)CNC(=O)[C@H](C)NC(=O)CNC(=O)[C@H](CCCCN)NC(=O)[C@H](CCCNC(=N)N)NC(=O)[C@H]([C@@H](C)CC)NC(=O)[C@H](C(C)C)NC(=O)[C@H](CCC(N)=O)NC(=O)[C@H](CCCNC(=N)N)NC1=O [retro-cd4] (cyclo(AGGKRIVQRIKDFLRGAGGRLFDKIRQVIRKG)) | – | – | – | – | MIC P. aeruginosa [1, 5]: 0.625 µM (≈ 2.25 µg/mL); MIC C. albicans [4, 5]: 2.5 µM (≈ 8.98 µg/mL) |
| CGGKRIVQRIKDFLRGAGGRLFDKIRQVIRKG-NH2 (C-terminus assumed) [retro-ld4*] | 0.625 µM | 0.625 µM | 1.25 µM | 0.625 µM | fold lower MIC compared to KR-12, C. albicans [4]: 16 fold |
| RLFDKIRQVIRK [retro-KR-12] | 10 µM | 5 µM | 10 µM | 5 µM | detection in serum after 20 min (in vitro; 37°C): could not be detected; remaining at 10 min (in vitro; human): ~20% |
